Laboratory results from article PMC7890253, “Signal Transduction Mechanisms for Glucagon-Induced Somatolactin Secretion and Gene Expression in Nile Tilapia (Oreochromis niloticus) Pituitary Cells” (Frontiers in Endocrinology, 2021).
pEC50: −log10 of the molar value.

Assays:
tilapia NIL cells [1] = assay: SL release in primary NIL cell culture (ELISA); type: cell-based, Nile tilapia (Oreochromis niloticus); settings: for SL release, dose dependence: mean ± SEM (N = 3)
Experimental: (§1) To examine the direct effects of GCG on SL release and gene expression in the pituitary, tilapia NIL cells were prepared by the controlled trypsin/DNase II digestion method as described previously ([30]). After that, NIL cells were seeded in poly-D-lysine precoated 24-well plates at ~1.5 × 10^6 cells/mL/well and incubated with test substances for the duration as indicated. After drug treatment, SL release in conditioned medium was immediately determined by the enzyme-linked immunosorbent assay (ELISA) with a detectable range from 0.5 to 500 ng/mL for SL. The assay was optimized in our laboratory by utilizing a polyclonal antibody against tilapia SL ([31]) and a SL-biotin conjugate (GenScript, Nanjing, China). Meanwhile, the cells were rinsed with cold PBS before being lysed by TRIzol reagent (Life Technologies) to measure SL gene expression. After cDNA synthesis, qPCR assays were performed using the primers specific for tilapia SL (forward primer: 5’ […] 3’ and reverse primer: 5’ […] 3’). The same qPCR conditions were maintained as described above, and gene expression levels were analyzed using the 2^−ΔΔCT method. In these experiments, β-actin was used as an internal control for normalizing genes of interest. It has been reported that β-actin is used to normalize SL gene expression in tilapia ([14]), goldfish ([32]), and red drum ([33]).
(§2) For qPCR and ELISA assays, NIL cells were prepared from 30–40 individual fish in each experimental run. For cAMP and IP3 measurements, NIL cells were prepared from ~30 individual fish in each experimental run. For Ca^2+ signal measurements, NIL cells were prepared from 10–12 individual fish. For the Western blot analysis, NIL cells were prepared from ~30 individual fish in each experimental run. Three biological replicates were analyzed, and four technical repeats were performed per sample. All results are expressed as the mean ± SEM (N = 3) and analyzed with ANOVA followed by post-hoc Bonferroni’s test for multiple comparisons. A value of P < 0.05 was regarded as statistically significant. All analyses were performed with GraphPad Prism Software, Inc (San Diego, CA).

tilapia NIL cells [2] = assay: SL gene expression in primary NIL cell culture (qPCR); type: cell-based, Nile tilapia (Oreochromis niloticus); settings: for effect on basal SL gene expression: 10 µM test substance
Experimental: as §1, §2

rat hepatocytes [3] = settings: ref [57]; cited from earlier work
rat hepatocytes [4] = settings: ref Mine et al. ([59]); cited from earlier work
Source text: Although pituitary GCG-mediated molecular signaling pathways remain largely unknown, GCG action in fish hepatocytes is mediated by the AC/cAMP/PKA pathway ([52], [55]). These findings promote us to investigate similar signaling mechanisms involved in GCGb action in tilapia pituitary cells. […] In contrast, both basal and GCGb-induced SL release and gene expression ...

fish glucagon = settings: ref [18]; cited from earlier work
Experimental: Male Nile tilapia (O. niloticus) with a bodyweight range of 45-55 g were purchased from local aquaria and maintained in aerated 300-liter aquaria at 28°C under 12 h dark/12 h light photoperiod. During tissue sampling, the fish were sacrificed by spinosectomy after anesthesia with 0.05% MS222 (Sigma, St Louis, MO) according to the procedures approved by the Animal Ethics Committee of Sichuan University. The tilapia and human GCGs and the des-His1-[Nle9-Ala11-Ala16] GCG antagonist were synthesized by GL Biochem (Shanghai, China).

tilapia GCGRa = assay: CRE-luciferase reporter assay, HEK293 cells stably expressing tilapia GCGRa; type: cell-based, Nile tilapia (Oreochromis niloticus)
Experimental: (§3) The open reading frames (ORFs) of tilapia Gcgra and Gcgrb were subcloned in the pcDNA3.1 (+) expression vector (Invitrogen) using high-fidelity Taq DNA polymerase (TOYOBO, Japan) and then HEK293 cell lines with stable expression of pcDNA3.1-GCGRa, and pcDNA3.1-GCGRb, respectively, were established in the presence of 500 µg/mL […] (Invitrogen). The expression of Gcgra and Gcgrb transcripts in these stably transfected cell lines was confirmed by qPCR, and the colonies with the same levels of Gcgra and Gcgrb mRNA expression were selected for subsequent studies. After that, HEK293 cells were co-transfected with the cAMP response element (CRE)-luciferase reporter plasmid, and Renilla luciferase plasmid (pTK-RL) (Promega, Madison, WI), encoding the Renilla luciferase protein, as the internal control using Lipofectamine in Opti-MEM (Invitrogen). […] The luciferase activity of cellular lysates was determined using a Dual-Glo luciferase assay kit (Promega), and the signal was read using a microplate reader (Fluostar OPTIMA, BMGLabtech). The luciferase activities in each treatment group were expressed as relative fold increase compared with the control group.
(§4) Figure 3 Functional characterization of tilapia GCGRa and GCGRb expressed in HEK293 cells. […] All results are expressed as the mean ± SEM (N = 3).

tilapia GCGRb = assay: CRE-luciferase reporter assay, HEK293 cells stably expressing tilapia GCGRb; type: cell-based, Nile tilapia (Oreochromis niloticus); settings: HEK293, CRE-luciferase (cAMP), 24 h treatment, 37°C, Luc ratio to Renilla, N = 3
Experimental: as §3, §4

GCGRb = settings: ref [42]; cited from earlier work
Source text: Identification of multiple types of Gcgrs raises a question of whether a given physiological response is mediated by either a specific receptor or multiple types of receptors. We examined the functional similarity and difference of the two tilapia GCGRs.

[5] = 10 µM test substance with GCGb 10 nM, 24 h
[6] = 5 µM test substance with GCGb 10 nM, 24 h
[7] = 1 µM test substance with GCGb 10 nM, 24 h
[8] = 5 µM test substance with GCGb 10 nM (duration not given)
[9] = 50 nM test substance with GCGb 10 nM (duration not given)

## CN(C)CCCn1cc(C2=C(c3c[nH]c4ccccc34)C(=O)NC2=O)c2ccccc21 [GF109203X]
Tilapia NIL cells [1]; 20 µM test substance with GCGb 10 nM, 24 h
  effect on GCGb-stimulated SL release: neither compound was able to block GCGb stimulated SL release

## O=S(=O)(NCCNC/C=C/c1ccc(Br)cc1)c1cccc2cnccc12 [H89]
Tilapia NIL cells [1]; [5]
  effect on GCGb-stimulated SL release: blocked
Tilapia NIL cells [1]; 10 µM test substance, 24 h
  effect on basal SL release: blocked the basal levels
Tilapia NIL cells [2]; [5]
  effect on GCGb-stimulated SL mRNA expression: blocked
Tilapia NIL cells [2]; 24 h
  effect on basal SL gene expression: blocked the basal levels

## CN([C@@H](Cc1ccc(OS(=O)(=O)c2cccc3cnccc23)cc1)C(=O)N1CCN(c2ccccc2)CC1)S(=O)(=O)c1cccc2cnccc12 [KN62]
Tilapia NIL cells [1]; [6]
  effect on GCGb-stimulated SL release: abolished
Tilapia NIL cells [2]; [6]
  effect on GCGb-stimulated SL mRNA expression: abolished

## Cl.c1ccc(C2CCCC2NC2=NCCCCCCCCCCC2)cc1 (stereo not shown) [MDL12330A]
Tilapia NIL cells [1]; [5]
  effect on GCGb-stimulated SL release: blocked
Tilapia NIL cells [1]; 10 µM test substance, 24 h
  effect on basal SL release: blocked the basal levels
Tilapia NIL cells [2]; [5]
  effect on GCGb-stimulated SL mRNA expression: blocked
Tilapia NIL cells [2]; 24 h
  effect on basal SL gene expression: blocked the basal levels

## COc1ccc2c(c1)CC[C@@H]1[C@@H]2CC[C@]2(C)[C@@H](NCCCCCCN3C(=O)C=CC3=O)CC[C@@H]12 [U73122]
Tilapia NIL cells [1]; [5]
  effect on GCGb-stimulated SL release: blocked the GCGb-stimulated SL release and mRNA expression
Tilapia NIL cells [2]; [5]
  effect on GCGb-stimulated SL mRNA expression: blocked the GCGb-stimulated SL release and mRNA expression

## Clc1ccc(C(c2ccc(Cl)cc2)n2cc[n+](CC(OCc3ccc(Cl)cc3Cl)c3ccc(Cl)cc3Cl)c2)cc1 (stereo not shown) [calmidazolium]
Tilapia NIL cells [1]; [7]
  effect on GCGb-stimulated SL release: abolished
Tilapia NIL cells [2]; [7]
  effect on GCGb-stimulated SL mRNA expression: abolished

## COc1c(C[C@@H](C)OC(=O)Oc2ccc(O)cc2)c2c3c(C[C@@H](C)OC(=O)c4ccccc4)c(OC)c(=O)c4c(O)cc(OC)c(c5c(OC)cc(O)c(c1=O)c52)c43 [calphostin C]
Tilapia NIL cells [1]; 20 nM test substance with GCGb 10 nM, 24 h
  effect on GCGb-stimulated SL release: neither compound was able to block GCGb stimulated SL release

## C=C[C@@]1(C)CC(=O)[C@]2(O)[C@@]3(C)[C@@H](O)CCC(C)(C)[C@@H]3[C@H](O)[C@H](OC(C)=O)[C@@]2(C)O1 [forskolin]
Tilapia NIL cells [1]; 0.1–100 nM, 24 h
  SL release, dose dependence: dose-dependently stimulated SL release

## Cc1cc(C)c(S(=O)(=O)Nc2cccc(C(F)(F)F)c2)c(C)c1 [m-3M3FBS]
Tilapia NIL cells [1]; 0.01–10 µM
  SL release, dose dependence: dose-dependently stimulated SL release

## COC(=O)C1=C(C)NC(C)=C(C(=O)OC)C1c1ccccc1[N+](=O)[O-] [nifedipine]
Tilapia NIL cells [1]; [8]
  effect on GCGb-stimulated SL release: effective in blocking the stimulatory effect of GCGb on SL release and mRNA expression
Tilapia NIL cells [2]; [8]
  effect on GCGb-stimulated SL mRNA expression: effective in blocking the stimulatory effect of GCGb on SL release and mRNA expression

## C/C=C(/C)C(=O)O[C@H]1C(C)=C2[C@H]([C@@H]1OC(=O)CCCCCCC)[C@@](C)(OC(C)=O)C[C@H](OC(=O)CCC)[C@@]1(O)[C@H]2OC(=O)[C@@]1(C)O [thapsigargin]
Tilapia NIL cells [1]; [9]
  effect on GCGb-stimulated SL release: effective in blocking the stimulatory effect of GCGb on SL release and mRNA expression
Tilapia NIL cells [2]; [9]
  effect on GCGb-stimulated SL mRNA expression: effective in blocking the stimulatory effect of GCGb on SL release and mRNA expression

## C1CCC[C@H]2CCCN3CC[C@@H](CCCCCC[C@@H]4CCCN5CC[C@@H](CC1)O[C@@H]45)O[C@@H]23 [xestospongin C]
Tilapia NIL cells [1]; [6]
  effect on GCGb-stimulated SL release: suppressed
Tilapia NIL cells [1]; 5 µM test substance, 24 h
  effect on basal SL release: suppressed
Tilapia NIL cells [2]; [6]
  effect on GCGb-stimulated SL mRNA expression: suppressed
Tilapia NIL cells [2]; 5 µM test substance, 24 h
  effect on basal SL mRNA levels: suppressed

## GCG: Glucagon, a 29 amino acid peptide hormone derived from proglucagon (cited work, species not stated)
Rat hepatocytes [3]
  production of IP3: induce the production of IP3
Rat hepatocytes [4]
  Ca^2+ release: can mediate Ca^2+ release from both intracellular Ca^2+ store and extracellular Ca^2+ influx

## des-His1-[Nle9-Ala11-Ala16] GCG antagonist
Tilapia NIL cells [1]; [7]
  effect on GCGb-stimulated SL release: stimulatory effect could be blocked
Fish glucagon
  block of the action of fish glucagon: could block the action of fish glucagon

## human GCG: human glucagon, synthesized by GL Biochem
Tilapia GCGRa; fold less potent than tilapia GCGa
  potency at tilapia GCGRa relative to tilapia GCGa (fold less potent): 80 fold
Tilapia GCGRa; tilapia GCGRa, HEK293, CRE-luciferase (cAMP), 24 h treatment, 37°C, Luc ratio to Renilla, N = 3
  pEC50: 6.62
Tilapia GCGRb
  pEC50: 8.20

## mouse GCG: mouse glucagon (cited work)
GCGRb
  activation of zebrafish GCGRb: potently activated
